Reference: patent publication US20060041019A1, “Inhibitor of anticancer drug side effect” (priority 2002, published 2006)

What was measured:
Assay type in all cases: in vivo
[1] = tested on: alveolar epithelial hyperplasia in male mouse models (CBA/J); experiment: Inhibition of alveolar epithelial hyperplasia, Test Example 1
Method: (§1) Male mouse models (CBA/J) of spontaneous alveolar epithelial hyperplasia were employed as test animals. These mice develop alveolar epithelial hyperplasia 12 to 15 weeks after birth. Accordingly, they were raised with normal feeds until 19 weeks after birth. […] CPL was mixed with powder feeds (CE-2). The daily dosage of adriamycin (ADM) was 0.1 mg/kg per mouse, and administration was made intraperitoneally once a day for three consecutive days, followed by drug withdrawal for 11 days. This procedure was designated as constituting a single course, and eight courses thereof were conducted.
At the time of ADM administration, the body weights of mice were measured and their general conditions were observed. In particular, the occurrence of hair loss was carefully observed. The mice were subjected to autopsy 36 weeks or 37 weeks after birth (with an administration duration of 17 weeks or 18 weeks), and samples were recovered. Tissue blocks were obtained from 3 sites each of the extirpated right and left lungs (6 sites in total), the recovered tissue fragments were fixed, fragments embedded in hydrophilic methacrylate resins were subjected to H-E staining, and the ranges of alveolar epithelial hyperplasia were compared. […]

[2] = tested on: Male mouse models (CBA/J) of spontaneous alveolar epithelial hyperplasia; experiment: Hair loss as side effect of adriamycin, Test Example 1; details: ADM 0.1 mg/kg i.p., eight courses
Method: as §1
At the time of ADM administration, the body weights of mice were measured and their general conditions were observed. In particular, the occurrence of hair loss was carefully observed. The mice were subjected to autopsy 36 weeks or 37 weeks after birth (with an administration duration of 17 weeks or 18 weeks), and samples were recovered. Tissue blocks were obtained from 3 sites each of the extirpated right and left lungs (6 sites in total), the recovered tissue fragments were fixed, fragments embedded in hydrophilic methacrylate resins were subjected to H-E staining, and the ranges of alveolar epithelial hyperplasia were compared.

[3] = tested on: Mouse models of spontaneous cancer (CBA/J); experiment: Hair loss and whisker loss as side effect of adriamycin, Test Example 4; details: ADM 0.2 mg/kg i.p. in courses; CPL 0.01% in feed; n = 10 (ADM), 9 (ADM and CPL), 10 (CPL)
Excerpt: Based on the results attained in Test Examples 2 and 3, hair loss and whisker loss were observed under overcrowded conditions or in the presence of a dominant male. […] Accordingly, only the cage in which the dominant male was not present among the group that had been raised under normal conditions was selected, and the effects of CPL for alleviating side effects of an antitumor agent were examined.
Thereafter, they were divided into: the group to which an antitumor agent (adriamycin, ADM) had been administered; the group to which CPL-containing feeds had been administered; and the group to which ADM had been administered in combination with CPL, and these groups of mice were raised. The daily dosage of ADM was 0.2 mg/kg per mouse, and administration was made intraperitoneally once a day for 3 consecutive days, followed by drug withdrawal for 11 days. This procedure was designated as constituting a single course and then continued. CPL was mixed with feeds (CE-2) in amounts of 0.01% thereof.

[4] = CPL 0.01% in feed, group sizes n = 7 (CPL), 8 (CPL and ADM), 10 (ADM)

COc1cccc2c1C(=O)c1c(O)c3c(c(O)c1C2=O)C[C@@](O)(C(=O)CO)C[C@@H]3O[C@H]1C[C@H](N)[C@H](O)[C@H](C)O1 [ADM, adriamycin]
Individuals in which sections with rates of hyperplasia development of 50% or more were observed ([1]; FIG. 9, as in the group that did not experience administration): all individuals | Sections with rates of hyperplasia development of less than 10%, share of the whole ([1]; lung tissue sections, 6 sites per individual, autopsy 36 or 37 weeks after birth, FIG. 8): 8.3% | Individuals with hair loss around the eyeballs and the skin of the upper lips ([2]; 9 out of 10 cases): 90% | Number of individuals undergoing hair loss around the eyeballs [2, 4]: 9 | Number of individuals undergoing hair loss at the upper lip [2, 4]: 9 | Hair loss and whisker loss (number of individuals) [3]: 4
